The target of the assay is T1, DCAMKL2 (DCK2) (Homo sapiens, UniProt Q8N568).
T1 construct: purchased Thermo Fisher Scientific (Life Technologies) SelectScreen
The experiment in a line: SelectScreen Z'LYTE. It is filed as biochemical. In a few lines:
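NU5455 was profiled across the SelectScreen Broad panel of kinase activity and binding assays. Z'LYTE reactions such as CSF1R ran at apparent Km ATP, while the Adapta CAMK1 assay used ATP listed as 10. Values are given as percent.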

Data on one compound can be found in publication PMC6934184, “Selective DNA-PKcs inhibition extends the therapeutic index of localized radiotherapy and chemotherapy” (The Journal of Clinical Investigation, 2019).

T1 sequence (Q8N568 whole entry): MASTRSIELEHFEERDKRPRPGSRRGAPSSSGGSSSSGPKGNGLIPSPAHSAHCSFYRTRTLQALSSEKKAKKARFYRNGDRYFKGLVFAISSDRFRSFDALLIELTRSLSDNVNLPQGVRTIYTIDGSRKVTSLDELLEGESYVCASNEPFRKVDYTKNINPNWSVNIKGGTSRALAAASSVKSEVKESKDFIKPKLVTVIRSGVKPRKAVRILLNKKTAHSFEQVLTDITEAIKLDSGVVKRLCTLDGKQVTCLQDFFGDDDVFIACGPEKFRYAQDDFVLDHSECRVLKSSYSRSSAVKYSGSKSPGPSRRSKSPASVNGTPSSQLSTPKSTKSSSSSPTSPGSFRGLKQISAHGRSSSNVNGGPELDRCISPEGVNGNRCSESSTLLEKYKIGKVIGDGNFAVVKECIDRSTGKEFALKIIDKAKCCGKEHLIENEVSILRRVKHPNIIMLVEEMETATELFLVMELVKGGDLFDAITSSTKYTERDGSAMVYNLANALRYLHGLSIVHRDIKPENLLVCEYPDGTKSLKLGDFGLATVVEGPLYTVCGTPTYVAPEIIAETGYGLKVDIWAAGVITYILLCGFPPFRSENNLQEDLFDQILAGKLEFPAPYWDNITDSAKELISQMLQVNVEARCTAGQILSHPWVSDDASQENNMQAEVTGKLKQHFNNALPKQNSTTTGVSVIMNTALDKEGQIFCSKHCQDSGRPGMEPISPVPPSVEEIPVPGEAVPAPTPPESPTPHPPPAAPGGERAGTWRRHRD

Regarding `CN(C(=O)CN1CCOCC1)c1ccc2sc3c(-c4cccc5c(=O)cc(N6CC7CCC(C6)O7)oc45)cccc3c2c1` [NU5455], the inhibition (as a rule, the share of the control response that was lost under treatment) at 1 µM worked out at 1.5%.
